Source: patent US20240316140A1 (UBIO INC., priority 2021, published 2024)
Residues, ends and D or L forms follow the SMILES beside them.

Legend:
HepG2 hepatoma cell line = experiment: HepG2 cytotoxicity evaluation of peptide (MTT); format: cell-based, human; conditions: tested 0.01 to 1000 ug/ml, 24 hours, non-toxic concentration
Method: After culturing a HepG2 hepatoma cell line, three kinds of synthetic peptides were added by concentration, and MTT (methylthiazol tetrazolium bromide, Sigma Aldrich) was carried out to confirm cell viability. An appropriate amount (1×10^5/well) of cells was seeded on each well in a 24-well plate (BD, Falcon) to treat a sample according to the concentration, and cell viability was confirmed after cultivation for 24 hours in a 37° C. incubator.

HepG2 cells = experiment: Hepatocyte protection ability of peptide against t-BHP damage (MTT); format: cell-based, human; conditions: 10 mM t-BHP
Method: HepG2 cells, which are hepatoma cell lines, were dispensed in the 24-well plate at 1×10^5/well and cultured. Thereafter, in order to confirm hepatocyte protection ability of three kinds of synthetic peptides, the peptides were treated by concentration, cultured for 23 hours, and then 10 mM of t-BHP was treated for damage to the hepatocytes to culture the same for 90 minutes.

Row | Compound | Test Concentration Setting, Cytotoxicity (HepG2) (HepG2 hepatoma cell line) | Hepatocyte Protection Ability (HepG2 cells; 10 ug/ml peptide) [%] | Hepatocyte Protection Ability (HepG2 cells; 0.1 ug/ml peptide) [%] | Hepatocyte Protection Ability (HepG2 cells; 1 ug/ml peptide) [%]
1 | CC(C)[C@H](N)C(=O)N[C@H](C(=O)N[C@H](C(=O)N[C@@H](CCC(=O)O)C(=O)O)C(C)C)C(C)C [PEP-1, VVVE] (H-VVVE-OH; N-terminus and C-terminus assumed) | less than 10 ug/ml | 7 |  | 
2 | CC(C)C[C@H](NC(=O)CNC(=O)[C@@H](N)CC(=O)O)C(=O)N[C@@H](Cc1c[nH]cn1)C(=O)N[C@@H](CC(C)C)C(=O)N[C@@H](CCCNC(=N)N)C(=O)O [PEP-2, DGLHLR] (H-DGLHLR-OH; N-terminus and C-terminus assumed) | less than 10 ug/ml | 26 | 15 | 20
3 | CC(C)[C@H](NC(=O)[C@H](CO)NC(=O)[C@@H]1CCCN1C(=O)[C@H](CC(N)=O)NC(=O)[C@H](Cc1ccccc1)NC(=O)[C@H](CC(=O)O)NC(=O)[C@@H](N)CC(=O)O)C(=O)N[C@@H](Cc1c[nH]cn1)C(=O)O [PEP-3] (H-DDFNPSVH-OH; N-terminus and C-terminus assumed) | less than 10 ug/ml | 20 | 9 | 20
